Laboratory results from US20050222076A1, “Composition for cell proliferation” (OTSUKA PHARMACEUTICAL CO., LTD., priority 2002, published 2005).

Tested on: human keratinocyte
Assay: In vitro cultured human keratinocyte cell proliferation promoting effect (WST-1)
Type: cell-based
Conditions: primary-cultured human keratinocyte, cultured two days; AMP 0-1 w/v % combined with UMP 0.000001-0.1 w/v %; versus comparative sample without uridine monophosphate disodium set as 1; FIG. 1
Method: Primary-cultured human keratinocyte (manufactured by Kurabo Industries, Ltd.) was cultured in a 10-cm petri dish, and the cultured cells were collected in the subconfluent state and then stored in a frozen state. The following experiments were conducted using those cryopreserved cells.
1. The cryopreserved cells were dissolved in HuMediaKG2 liquid culture media (manufactured by Kurabo Industries, Ltd.), the cell concentration was adjusted to […]. 50 μl of thus obtained cells-containing solution was poured into each well of a test plate to adjust the cell concentration to 2500 cells/50 μl/well.
2. […]
3. […] The test samples contained solutions at various concentrations prepared by blending uridine monophosphate disodium to adenosine monophosphate disodium solutions in which the concentration of adenosine monophosphate contained in the 300 μl of the test sample was adjusted to 0, 0.0001, 0.001, 0.01, 0.1, and 1 W/V %, so that the concentration of uridine monophosphate disodium was adjusted to 0, 0.000001 (1E-06), 0.00001 (1E-05), 0.0001, 0.001, 0.01 and 0.1 w/v % as calculated based on the concentration of the uridine monophosphate.
4. Two days after culture initiation, the proliferation of human keratinocyte cells was measured using a WST-1 reagent (manufactured by TaKaRa) based on the rise in absorbance. […]

SMILES | cell proliferation promoting effect of adenosine monophosphate disodium when blended with uridine monophosphate disodium (relative ratio of number of cells, ratio of cont.)
Nc1ncnc2c1ncn2[C@@H]1O[C@H](COP(=O)([O-])[O-])[C@@H](O)[C@H]1O.[Na+].[Na+] [adenosine monophosphate disodium] | potentiated and promoted
O=c1ccn([C@@H]2O[C@H](COP(=O)([O-])[O-])[C@@H](O)[C@H]2O)c(=O)[nH]1.[Na+].[Na+] [uridine monophosphate disodium] | potentiated and promoted
